One assay relates to HeLa. The assay is described as follows: Cytotoxicity against human HeLa cells by MTT assay. Type of assay: functional, cell-based.
A short description of assay [1]: Cytotoxicity against mouse P388D1 cells by MTT assay. The assay is classed as functional, cell-based. (Tetrazolium dyes change colour on reduction, which living cells bring about.)

This note sets out measurements from ChEMBL document CHEMBL1151899, “Oleanane-type isomeric triterpenoids from Barringtonia racemosa” (J Nat Prod, 2009).

Molecules are shown by their SMILES.

For orientation: IC50 means the midpoint of a concentration-inhibition curve. High values mean weaker potency, low ones greater potency. With `CC[C@H](/C=C/[C@@H](C)[C@H]1CC[C@H]2[C@@H]3CC=C4C[C@@H](O)CC[C@]4(C)[C@H]3CC[C@]12C)C(C)C` [STIGMASTEROL], the IC50 (with HeLa; in assay [1]) was more than 50 µM each time.
Take `CC1(C)C[C@H]2C3=CC[C@@H]4[C@@]5(C)CC[C@H](O)C(C)(C)[C@@H]5CC[C@@]4(C)[C@]3(C)C[C@@H](O)[C@@]2(CO)[C@@H](O)[C@@H]1O` [BARRINGTOGENOL C]: the IC50 (in the assay with HeLa; in assay [1]) was more than 50 µM throughout.
In the case of `CC1(C)CC[C@]2(C(=O)O)CC[C@]3(C)C(=CC[C@@H]4[C@@]5(C)C[C@@H](O)[C@H](O)[C@@](C)(C(=O)O)[C@@H]5CC[C@]43C)[C@@H]2[C@@H]1O` [BARTOGENIC ACID], the IC50 (with HeLa; in assay [1]) was more than 50 µM each time.
For the compound `CCC(C)C(=O)OC[C@@]12[C@H](O)[C@H](O)[C@]3(C)C(=CC[C@@H]4[C@@]5(C)CC[C@H](O)C(C)(C)[C@@H]5CC[C@]43C)[C@@H]1CC(C)(C)[C@@H](O)[C@@H]2OC(C)=O` (stereo partly drawn) [RACEMOSOL A], the IC50 (with HeLa; in assay [1]) was more than 50 µM in each case.
Turning to `CCC(C)C(=O)O[C@H]1[C@H](OC(C)=O)C(C)(C)C[C@H]2C3=CC[C@@H]4[C@@]5(C)CC[C@H](O)C(C)(C)[C@@H]5CC[C@@]4(C)[C@]3(C)[C@@H](O)[C@@H](O)[C@]21CO` (stereo partly drawn) [ISORACEMOSOL A], the 50% inhibitory concentration (IC50) (with HeLa; in assay [1]) was more than 50 µM each time.
